In ChEMBL document CHEMBL2331358, “Novel agmatine dipeptide inhibitors against the West Nile virus NS2B/NS3 protease: a P3 and N-cap optimization study” (Eur J Med Chem, 2013):

Test: Inhibition of West Nile virus NS2B-NS3 serine protease using Pyr-RTKR-AMC as substrate incubated for 1 hr prior to substrate addition measured every 45 secs for 1 hr by fluorescence assay
For `N=C(N)NCCCCNC(=O)[C@H](CCCCN)NC(=O)[C@H](CCC(N)=O)NCC(=O)c1ccc(-c2ccccc2)cc1`, the IC50 was > 100 µM. In the case of `N=C(N)NCCCCNC(=O)[C@H](CCCCN)NC(=O)[C@H](CC(=O)O)NCC(=O)c1ccc(-c2ccccc2)cc1`, the IC50 is reported as > 100 µM. With `CC(C)C[C@H](NCC(=O)c1ccc(-c2ccccc2)cc1)C(=O)N[C@@H](CCCCN)C(=O)NCCCCNC(=N)N` the IC50 was > 100 µM. Work on `CC(C)CC(=O)N[C@@H](CCCCN)C(=O)N[C@@H](CCCCN)C(=O)NCCCCNC(=N)N` yielded an IC50 of 19.2 µM. For `N=C(N)NCCCCNC(=O)[C@H](CCCCN)NC(=O)[C@@H]1CCCN1CC(=O)c1ccc(-c2ccccc2)cc1`, the IC50 was > 100 µM. With `N=C(N)NCCCCNC(=O)[C@H](CCCCN)NC(=O)[C@H](CCCNC(=N)N)NCC(=O)c1ccc(-c2ccccc2)cc1` the IC50 was 19.1 µM. `N=C(N)NCCCCNC(=O)[C@H](CCCCN)NC(=O)[C@H](CCCCN)NC(=O)Cc1cccc(-c2ccccc2)c1` gave an IC50 of 9.9 µM. `N=C(N)NCCCCNC(=O)[C@H](CCCCN)NC(=O)[C@H](CCCCN)NC(=O)CCc1ccccc1` showed an IC50 of 42.2 µM. `N=C(N)NCCCCNC(=O)[C@H](CCCCN)NC(=O)[C@H](CCCCN)NC(=O)Cc1ccc(Cl)cc1` showed an IC50 of 4.8 µM. Work on `CC(C)C(=O)N[C@@H](CCCCN)C(=O)N[C@@H](CCCCN)C(=O)NCCCCNC(=N)N` yielded an IC50 of 23.8 µM. For `Cc1ccccc1CC(=O)N[C@@H](CCCCN)C(=O)N[C@@H](CCCCN)C(=O)NCCCCNC(=N)N`, the IC50 was 6.8 µM. With `N=C(N)NCCCCNC(=O)[C@H](CCCCN)NC(=O)[C@H](CO)NCC(=O)c1ccc(-c2ccccc2)cc1` the IC50 was > 100 µM. `N=C(N)NCCCCNC(=O)[C@H](CCCCN)NC(=O)[C@H](CCCCN)NC(=O)Cc1ccccc1` showed an IC50 of 8.5 µM. In the case of `N=C(N)NCCCCNC(=O)[C@H](CCCCN)NC(=O)[C@H](CCCCN)NC(=O)c1ccccc1`, the IC50 is reported as 38.6 µM. For `N=C(N)NCCCCNC(=O)[C@H](CCCCN)NC(=O)[C@@H](CCCCN)NCC(=O)c1ccc(-c2ccccc2)cc1`, the IC50 was > 100 µM. With `N=C(N)NCCCCNC(=O)[C@H](CCCCN)NC(=O)CNCC(=O)c1ccc(-c2ccccc2)cc1` the IC50 was > 100 µM. `CCCC(=O)N[C@@H](CCCCN)C(=O)N[C@@H](CCCCN)C(=O)NCCCCNC(=N)N` gave an IC50 of 18.5 µM. With `Cc1ccc(CC(=O)N[C@@H](CCCCN)C(=O)N[C@@H](CCCCN)C(=O)NCCCCNC(=N)N)cc1` the IC50 was 6.9 µM. For `CC(C)[C@H](NCC(=O)c1ccc(-c2ccccc2)cc1)C(=O)N[C@@H](CCCCN)C(=O)NCCCCNC(=N)N`, the IC50 was > 100 µM. With `N=C(N)NCCCCNC(=O)[C@H](CCCCN)NC(=O)[C@H](CCCCN)NC(=O)Cc1ccccc1Cl` the IC50 was 2.6 µM. Work on `CC(C)(C)C(=O)N[C@@H](CCCCN)C(=O)N[C@@H](CCCCN)C(=O)NCCCCNC(=N)N` yielded an IC50 of 27.1 µM. `CC(=O)N[C@@H](CCCCN)C(=O)N[C@@H](CCCCN)C(=O)NCCCCNC(=N)N` gave an IC50 of 18.2 µM. Compound `N=C(N)NCCCCNC(=O)[C@H](CCCCN)NC(=O)[C@H](CCCCN)NCC(=O)c1ccc(-c2ccccc2)cc1` has an IC50 of 4.7 µM. With `N=C(N)NCCCCNC(=O)[C@H](CCCCN)NC(=O)[C@H](Cc1ccc(O)cc1)NCC(=O)c1ccc(-c2ccccc2)cc1` the IC50 was 33.5 µM. For `N=C(N)NCCCCNC(=O)[C@H](CCCCN)NC(=O)[C@H](CCCCN)NC(=O)CCCc1ccccc1`, the IC50 was 11.2 µM. With `CCCC[C@H](NCC(=O)c1ccc(-c2ccccc2)cc1)C(=O)N[C@@H](CCCCN)C(=O)NCCCCNC(=N)N` the IC50 was 47.9 µM. In the case of `CC(=O)N[C@@H](CCCCN)C(=O)NCCCCNC(=N)N`, the IC50 is reported as > 100 µM. With `N=C(N)NCCCCNC(=O)[C@H](CCCCN)NC(=O)[C@H](Cc1ccccc1)NCC(=O)c1ccc(-c2ccccc2)cc1` the IC50 was 44.5 µM. `CCC(=O)N[C@@H](CCCCN)C(=O)N[C@@H](CCCCN)C(=O)NCCCCNC(=N)N` showed an IC50 of 19.1 µM. In the case of `N=C(N)NCCCCNC(=O)[C@H](CCCCN)NC(=O)[C@H](CC(N)=O)NCC(=O)c1ccc(-c2ccccc2)cc1`, the IC50 is reported as > 100 µM. In the case of `N=C(N)NCCCCNC(=O)[C@H](CCCCN)NC(=O)[C@H](CCC(=O)O)NCC(=O)c1ccc(-c2ccccc2)cc1`, the IC50 is reported as > 100 µM. `N=C(N)NCCCCNC(=O)[C@H](CCCCN)NC(=O)[C@H](CCCCN)NC(=O)Cc1cccc(Cl)c1` showed an IC50 of 9.6 µM. For `C[C@H](NCC(=O)c1ccc(-c2ccccc2)cc1)C(=O)N[C@@H](CCCCN)C(=O)NCCCCNC(=N)N`, the IC50 was 53.7 µM. For `Cc1cccc(CC(=O)N[C@@H](CCCCN)C(=O)N[C@@H](CCCCN)C(=O)NCCCCNC(=N)N)c1`, the IC50 was 9.2 µM. In the case of `N=C(N)NCCCCNC(=O)[C@H](CCCCN)NC(=O)[C@H](Cc1cnc[nH]1)NCC(=O)c1ccc(-c2ccccc2)cc1`, the IC50 is reported as > 100 µM. With `N=C(N)NCCCCNC(=O)[C@H](CCCCN)NC(=O)[C@@H](N)CCCCN` the IC50 was 38.2 µM. In the case of `N=C(N)NCCCCNC(=O)[C@H](CCCCN)NC(=O)[C@H](CCCCN)NC(=O)c1cccc2ccccc12`, the IC50 is reported as 33.3 µM. `N=C(N)NCCCCNC(=O)[C@H](CCCCN)NC(=O)[C@H](CCCCN)NC(=O)c1ccc2ccccc2c1` gave an IC50 of 32.5 µM.
